The source of these data is article PMC2807854, “Monoketone analogs of curcumin, a new class of Fanconi anemia pathway inhibitors” (Molecular Cancer, 2009).

Read-outs that look alike come from different tables or passages of the source. Residues, ends and D or L forms follow the SMILES beside them. *: point of attachment. Cbz = O=C(OCc1ccccc1)*

Assay [1] relates to xFANCD2-Ub (FANCD2 monoubiquitylation). Briefly: Xenopus cell-free FA pathway assay: DNA substrate-induced xFANCD2 monoubiquitylation (immunoblot, densitometry). The format is biochemical, Xenopus laevis. To be noted: for IC50: plasmid-activated Xenopus extracts, Fig. 7B, read-out: xFANCD2-Ub inhibition IC50; for activity against xFANCD2-Ub in Xenopus extracts: activated Xenopus extracts, serial dilutions up to 3000 μM. The protocol: (§1) A series of monoketone analogs of curcumin [18] was evaluated in Xenopus egg extracts where DNA substrate-induced xFANCD2-Ub is used as a readout of FA pathway performance. Phosphorylation of MRE11 (MRE11-P), a member of the MRN DNA damage repair pathway was monitored to assess the cross-specificity of the compounds. For each compound, IC50 values were determined from serial dilution experiments and densitometry analysis of immunoblots.
(§2) IC50 values were determined using immunoblots of plasmid-activated extracts treated with a range of concentrations for each compound (0, 10, 25, 60, 150, 400, 1000, 3000 μM). A representative experiment is shown (out of 3 repeats). B) Structure of curcumin and monoketone analogs. […] Activated extracts were treated with 1 mM each compound and phosphorylation of RPA32 and H2AX monitored by immunoblot.
(§3) Preparation of Xenopus laevis low-speed extracts and the FA pathway assay were described previously.
(§4) Fitted curves were determined from experimental data using IgorPro. The concentration of compound that induces 50% inhibition of the measured endpoint (i.e. FANCD2 ubiquitylation, Mre11 phosphorylation and cell survival) was then plotted on the fitted curve.

Another assay concerns hFANCD2-Ub in HeLa cells. Briefly: hFANCD2 ubiquitylation assay in hydroxyurea-treated HeLa cells (immunoblot, densitometry). The settings on record: Homo sapiens; HeLa cells co-treated with hydroxyurea; read-out: hFANCD2-Ub inhibition IC50. The format is cell-based, human. On the procedure:
We next determined whether EF24 could inhibit hFANCD2-Ub in human cells. Curcumin was tested in parallel to assess whether activity difference observed in extracts are mirrored in cells. HeLa cells were co-treated with increasing concentrations of compounds and hydroxyurea (HU), a standard method to stimulate hFANCD2-Ub (Fig. 4A, lanes 1-2, 7-8, [30]).
A) Hydroxyurea-induced FANCD2-Ub in HeLa cells is inhibited by EF24 at lower concentrations than curcumin. hFANCD2-Ub was monitored by immunoblot and densitometry analysis to determine IC50. B) Hydroxyurea-induced hFANCD2 foci formation is inhibited by EF24. hFANCD2 foci were detected by immunofluorescence and the percentage of cells with more than 5 foci was determined for each treatment. Histograms represent the average of 3 experiments. Error bars represent standard deviation.
hFANCD2 ubiquitylation assay and immunofluorescence assays in HeLa cells have been described elsewhere.
as §4
On the technique in general: A western blot detects proteins with antibodies after separation by electrophoresis.

A further assay relates to 309ATM KO cells. Briefly: Survival assay (MTS), ATM KO mouse kidney cells. The format is cell-based. The settings on record: for sensitivity of 309ATM KO cells compared to 334ATM WT cells: 72 hrs survival, KO vs WT; for IC50: 309ATM KO cells, 72 hrs, MTS, read-out: cell survival IC50 KO.
From the text: (§5) To test this possibility, we compared the effects of curcumin and EF24 in an ATM KO mouse kidney cell line (309ATM KO) and its isogenic, wild type counterpart (334ATM WT). As expected from ATM deficiency, 309ATM KO cells were more sensitive to ionizing irradiation than 334ATM WT (Additional File 1 - Fig. S3). We next treated these cell lines with various concentrations of EF24 and measured their survival after 72 hrs.
(§6) Figure 6 EF24 but not curcumin or DRB is more toxic to ATM-deficient mouse kidney cells than wild-type cells. A) 309ATM KO and 334ATM WT cells were treated with various concentrations of EF24. Cell viability was measured after 3 days by MTS assay. Each point represents the mean of 3 repeats. Error bars represent standard deviation. B) Similar experiment was performed using curcumin.
(§7) HSC72OT and HSC72OT+A cells were seeded at 5,000 per well in 96-well plates, and treated 24 hrs later with various concentrations of compounds or DMSO (1 μl in 100 μl medium). 309ATM KO and 334ATM WT cells were seeded at 7,000 per well and treated immediately. Cell survival was measured after 3 days using the CellTiter 96 AQueous One Solution Cell Proliferation Assay (Promega) following the recommendations from the manufacturer. All experiments were done in triplicate.
as §4

The test system of another assay is 334ATM WT cells. Briefly: Survival assay (MTS), ATM wild-type mouse kidney cells. The format is cell-based. To be noted: 72 hrs, read-out: cell survival IC50 WT.
From the text: as §5, §6, §7, §4

In assay [2] the test system is proteasome. The arrangement: method as in PMID 16982768. The settings on record: cited from earlier work.
For assay [3], the system named is ubiquitin isopeptidase/deubiquitinase (DUB). Also on record: method as in PMID 16982768. The settings on record: cited from earlier work.
For assay [4], the system named is proteasome. Briefly: Proteasome assay in Xenopus extracts, both activities taken together. The settings on record: caspase-like and chymotrypsin-like activities. The format is biochemical, Xenopus laevis. The source says: The proteasome is required for the monoubiquitylation of xFANCD2 in cells. As curcumin has proteasome inhibiton activities, we tested whether EF24 inhibits xFANCD2-Ub by this mechanism. Two proteasome activities (caspase-like and chymotrypsin-like) along with xFANCD2-Ub status were monitored in activated Xenopus extracts treated with various compounds (Fig. 2A).
Proteasome activities and xFANCD2-Ub were monitored using fluorogenic probes and immunoblotting, respectively. IC50 values were determined for each compound using a range of concentrations and represented in histogram graphs. For MG132, numbers above caspase-like and chymotrypsin-like histograms indicate the actual IC50 values. A representative experiment is shown (out of 3 repeats).
Fluorogenic peptides (Proteasome Substrate Pack #PW9905) specific for the chymotrypsin-like and caspase-like activities of the proteasome were incubated in Xenopus extracts treated with serial dilutions of various compounds. Fluorescence emitted by proteasome cleavage of the peptides was monitored using a fluorometer (FluoStar Galaxy, BMG Labtech) with 380 nm and 460 nm excitation and emission filters, respectively. Experiments were repeated at least twice.

Assay [5] has as its system xMRE11-P (MRE11 phosphorylation). Briefly: MRE11 phosphorylation in activated Xenopus extracts (immunoblot). The format is biochemical, Xenopus laevis. The protocol:
as §1, §2, §3, §4

Assay [6] deals with IKK (IκB-α stabilization). Briefly: IκB-α accumulation in Xenopus extracts as readout of IKK inhibition (immunoblot). The format is biochemical, Xenopus laevis. To be noted: Xenopus extracts prepared without cycloheximide, Fig. 3A/3B. The protocol:
We tested whether EF24 inhibits IKK activity in Xenopus extracts by monitoring the accumulation of the IKK target, IκB-α (Fig. 3A). Because IκB-α phosphorylation by IKK leads to its degradation by the ubiquitin-proteasome pathway, inhibition of IKK results in the accumulation of IκB-α. For this experiment, we used extracts prepared without cycloheximide to allow for de novo translation of IκB-α.
Extracts treated as indicated were analyzed by immunoblot using xFANCD2, IκB-α and tubulin-α antibodies. IκB-α protein level was used as readout for monitoring IKK inhibition. […] Experiment was performed as in (A). The structure of BMS-345541 is shown. The star denotes a non-specific band used as loading control.

In assay [7] the test system is IKK-2 (IKKβ) vs IKK-1 (IKKα). To be noted: cited from earlier work.

Usually IC50 stands for the concentration needed to halve the response being measured. Regarding `O=C1/C(=C/c2ccc([N+](=O)[O-])cc2)CS(=O)(=O)C/C1=C\c1ccc([N+](=O)[O-])cc1` [4H-TTD, 4H-Thiopyran-4-one, tetrahydro-3,5-bis [(4-nitrophenyl)methylene]-,1,1-dioxide], the IC50 in [1] came out at 250 µM; in the assay on hFANCD2-Ub in HeLa cells, 0.12 µM; with 309ATM KO cells (Mus musculus), 0.18 µM; with 334ATM WT cells (Mus musculus), 0.5 µM. In addition, the “overall cell toxicity concentration relative to EF24” value in the assay with 309ATM KO cells (309ATM KO and 334ATM WT survival assay) was “about 10 times”. For the same compound, in the assay on 309ATM KO cells, the “sensitivity of 309ATM KO cells compared to 334ATM WT cells” value stood at 3 fold. Further, in the assay with proteasome [2], the proteasome activity entry is “did not inhibit proteasome activity”. In addition, the “ubiquitin isopeptidase/deubiquitinase (DUB) inhibition” value in assay [3] is on record as “exhibited ubiquitin isopeptidase/deubiquitinase (DUB) inhibition activity”.

In the case of `CC(C)(C)OC(=O)N1C/C(=C\c2ccccc2F)C(=O)/C(=C/c2ccccc2F)C1` [0616-104], in [1], the “activity against xFANCD2-Ub in Xenopus extracts” value (shortened to “activity against xFANCD2-Ub”) is “non-detectable levels”.

`NC1C/C(=C\c2ccccc2F)C(=O)/C(=C/c2ccccc2F)C1` (stereo not shown) [0810-117]: in [1], the “activity against xFANCD2-Ub” value is listed as “non-detectable levels”. The “proteasome inhibition” value in the assay with proteasome [4] was “weak inhibitory activities against both the proteasome and xFANCD2-Ub”.

On to `O=C1/C(=C/c2ccccn2)CSC/C1=C\c1ccccn1` [0821-120A], for which the “activity against xFANCD2-Ub” value in [1] is listed as “drops the activity only slightly”.

Take `O=C1/C(=C/c2ccccn2)COC/C1=C\c1ccccn1` [0822-3]: the “activity against xFANCD2-Ub” value in assay [1] is listed as “only weakly active”.

For the compound `O=C1/C(=C/c2ccccc2F)COC/C1=C\c1ccccc1F` [AS153-2], in assay [1], the “activity against xFANCD2-Ub” value is listed as “undetectable levels”.

For `O=C1/C(=C/c2cccc(F)c2)CNC/C1=C\c1cccc(F)c1` [AS153-4], the “activity against xFANCD2-Ub” value in assay [1] is recorded as “strong activity against xFANCD2-Ub”. For the same compound, the “fold less active than curcumin for proteasome inhibition” value in the assay with proteasome [4] is on record as 20 fold.

Turning to `O=C1/C(=C/c2ccc(F)cc2)CNC/C1=C\c1ccc(F)cc1` [AS153-5], the “activity against xFANCD2-Ub” value in [1] is on record as “much more potent than the corresponding thio-pyran analog”.

By EC50 is commonly meant the concentration needed to bring the measured effect to its halfway point. For `Cc1ccc2nc(NCCN)c3ncc(C)n3c2c1` [BMS-345541, reference compound], the EC50 in assay [1] (Xenopus extracts prepared without cycloheximide, Fig. 3A/3B, read-out: xFANCD2-Ub inhibition EC50) amounted to 970 µM; in assay [6], 280 µM. Also, the “effect on xMRE11 phosphorylation” value in assay [5] is recorded as “MRE11 phosphorylation was inhibited”. Moreover, the “fold more active on IKK-2 (IKKβ) than on IKK-1 (IKKα)” value in assay [7] is on record as 10 fold.

In the case of `OC[C@H]1O[C@@H](n2cnc3cc(Cl)c(Cl)cc32)[C@H](O)[C@@H]1O` [DRB, reference compound], in [1], the “activity against xFANCD2-Ub” value is recorded as “no effect on the FA pathway in Xenopus extracts”. Also, the concentration for half-maximal inhibition (IC50) in the assay with 309ATM KO cells was 56 µM; in the assay on 334ATM WT cells, 60 µM.

Consider `O=C1/C(=C/c2ccccn2)CNC/C1=C\c1ccccn1` [EF31], for which, in assay [1], the “activity against xFANCD2-Ub” value is listed as “strong activity against xFANCD2-Ub”. Further, in the assay on proteasome [4], the “fold less active than curcumin for proteasome inhibition” value was 20 fold.

For the compound `CC(C)C[C@@H](C=O)NC(=O)[C@H](CC(C)C)NC(=O)[C@H](CC(C)C)NC(=O)OCc1ccccc1` [MG132, reference compound] (Cbz-Leu-Leu-Leu-aldehyde), the “activity against xFANCD2-Ub” value in assay [1] is on record as “only a weak activity on xFANCD2-Ub”. In addition, in the assay with proteasome [4], the “proteasome inhibition” value is listed as “efficiently inhibited both proteasome activities”.

In the case of `COc1cc(/C=C/C(=O)CC(=O)/C=C/c2ccc(O)c(OC)c2)ccc1O` [curcumin], in assay [1], the “activity against xFANCD2-Ub” value was “only a weak activity on xFANCD2-Ub”. For the same compound, the 50% inhibitory concentration (IC50) in assay [1] was greater than 2000 µM; in the assay with hFANCD2-Ub in HeLa cells it was 15 µM; with 309ATM KO cells (Mus musculus) it was 23 µM; with 334ATM WT cells (Mus musculus) it was 17 µM. Besides, in the assay with proteasome [4], the “proteasome inhibition” value was “efficiently inhibited both proteasome activities”. For the same compound, the “sensitivity of 309ATM KO cells compared to 334ATM WT cells” value in the assay with 309ATM KO cells is “slightly more resistant”.

For `CO[C@H]([C@H](O)CC(=O)[C@@H](C)[C@@H](O)CC[C@@H](C)[C@@H]1O[C@]2(CC[C@@H](C)[C@H](CC[C@H](C)C(C)=O)O2)CC[C@@H]1C)[C@H](OC(=O)C[C@@H](O)C1=C(C)C(=O)OC1=O)C(C)C` [tautomycin, reference compound], in assay [1], the “activity against xFANCD2-Ub” value is reported as “no detectable effect on xFANCD2-Ub”. Moreover, in assay [5], the “effect on xMRE11 phosphorylation” value was “accumulation of xMRE11-P”.
